# Where a SMILES comes first, the peptide text is derived from it. Bridges are numbered along the chain shown (N, C = ends). [ ]: non-standard residue; d: D form. S5 = C=CCCC[C@](C)(N)C(=O)O; Ahx = NCCCCCC(=O)O
# How the values were obtained:
# APC^−/− organoids = assay: APC^−/− mouse intestinal organoid culture; format: cell-based
# β-catenin = target: T1, β-catenin (Homo sapiens, UniProt P35222); assay: β-catenin immunoblotting / immunoprecipitation in HEK293T cells
# T1 sequence (P35222 1-781): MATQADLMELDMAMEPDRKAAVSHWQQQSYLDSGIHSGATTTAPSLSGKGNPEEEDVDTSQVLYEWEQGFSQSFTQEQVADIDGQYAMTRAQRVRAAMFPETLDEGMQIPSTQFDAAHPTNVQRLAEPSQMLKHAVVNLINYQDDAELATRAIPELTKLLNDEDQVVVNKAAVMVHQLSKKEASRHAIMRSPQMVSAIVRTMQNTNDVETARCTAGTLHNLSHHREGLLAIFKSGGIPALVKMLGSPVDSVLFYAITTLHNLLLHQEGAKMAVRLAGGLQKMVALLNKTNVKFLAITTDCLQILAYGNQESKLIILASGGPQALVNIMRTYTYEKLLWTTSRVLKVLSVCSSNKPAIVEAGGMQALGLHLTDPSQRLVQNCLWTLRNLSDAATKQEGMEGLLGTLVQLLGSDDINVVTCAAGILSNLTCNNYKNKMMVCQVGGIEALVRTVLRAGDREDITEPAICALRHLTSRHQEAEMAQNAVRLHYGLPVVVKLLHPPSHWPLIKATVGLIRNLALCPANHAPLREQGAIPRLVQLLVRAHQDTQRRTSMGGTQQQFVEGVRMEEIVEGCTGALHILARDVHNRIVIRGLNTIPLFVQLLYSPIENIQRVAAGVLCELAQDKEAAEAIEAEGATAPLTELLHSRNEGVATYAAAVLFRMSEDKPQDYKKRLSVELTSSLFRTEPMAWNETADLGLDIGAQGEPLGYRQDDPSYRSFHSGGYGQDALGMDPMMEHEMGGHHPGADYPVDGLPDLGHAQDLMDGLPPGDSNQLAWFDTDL
# Description: The relative band intensity was quantified with ImageJ and normalized to GAPDH.
# For immunoprecipitation, the cells were lysed in TNE lysis buffer (50 mM Tris-HCl, pH 8.0, 150 mM NaCl, 1% Nonidet P-40, and protease inhibitor cocktail). […] After 18,000×g centrifugation for 10 min, the lysates were immunoprecipitated with specific antibody and protein A-Sepharose beads and then washed the beads with TNE buffer for three times before immunoblotting.
# Wnt/β-catenin signaling = assay: Topflash luciferase reporter assay in HEK293T cells; format: cell-based; conditions: Wnt3a CM, 24 h
# Description: Dual luciferase reporter assay system (Promega) was used. HEK293T cells, cultured in 24-well plates, were transfected with 200 ng Topflash plasmid and 30 ng Renilla plasmid for 3-well cells. […] Then harvested the cells for luciferase activity measurement.
# HCT116 cells = assay: Cell proliferation assay (CCK-8), HCT116 cells; format: cell-based; conditions: 50 μM peptides, 6 days, cell number counted each day
# Description: Equal number of cells (8000–10,000 cells) were seeded in the 24-well plates and then subjected to different treatments. The cell numbers were counted every 24 h with the CCK-8 cell counting kit (Dojindo Molecular Technologies) according to manufacturer’s instructions.
# Axin2 expression = assay: Axin2^LacZ Wnt reporter mice, β-galactosidase staining of small intestine; format: in vivo; conditions: i.p. injection, 7 doses/14 days
# Description: The small intestines were isolated from Axin2^LacZ reporter mice, washed with PBS and fixed in 4 % paraformaldehyde for 1 h at room temperature, then cut into small pieces (1 cm). The tissue pieces were stained with in situ β-galactosidase staining kit (Beyotime) according to the manufacturer’s instruction. The stained tissues were transferred to tissue cassettes and paraffin blocks prepared using standard methods. The tissues were sliced into 5 μm thick sections with paraffin slicing machine (RM2235, Leica) and subjected to hematoxylin staining.
# wild-type organoids = assay: Wild-type mouse intestinal organoid culture; format: cell-based; conditions: 10 μM peptides
# Description: Fig. 5 xStAx-VHLL inhibits the growth of wild-type and APC^−/− organoids. a Wild-type organoids were cultured with 10 μM peptides for 4 days. The trypan blue staining at day 4 indicated the dead organoids. Scale bar = 100 μm. […] Relative β-catenin and cleaved caspase3 protein levels were quantified. e Wild-type organoids were cultured with 10 μM peptides for 3 h and harvested for qPCR analysis of Wnt target genes. f APC^−/− organoids were cultured with 50 μM peptides for 4 days. The trypan blue staining at day 4 indicated the dead organoids. Scale bar = 100 μm. […] Relative β-catenin and cleaved caspase3 protein levels were quantified. The relative band intensity was quantified with ImageJ and normalized to GAPDH levels.
# Mouse intestinal crypts isolation and organoid culture were performed as previously described. Briefly, mouse intestine was cut longitudinally and washed three times with cold PBS. Villi were carefully scraped away and small pieces (5 mm) of intestine were incubated in 0.5 M EDTA in PBS for 40 min on ice. These pieces were then vigorously suspended in cold PBS and the mixture was passed through 70 μm cell strainer (BD Biosciences). The crypt fraction was enriched through centrifugation (3 min at 300–400 g). Then the crypts were embedded in Matrigel (BD Biosciences) and seeded on 48-well or 24-well plates. The intestinal organoid culture medium consists of Advanced DMEM/F12 supplemented with Penicillin/Streptomycin, GlutaMAX-I, N2, B27 and N-acetylcysteine (Sigma-Aldrich) and combination of growth factors including EGF (50 ng/mL, Invitrogen), Noggin (100 ng/mL, R&D) and R-spondin1 (500 ng/mL). The organoids were treated with proper dilution of peptides in the medium.
# Supplementary Fig. S7. xStAx-VHLL restricts Lgr5+ intestinal stem cell
# population and cell viability in intestinal organoids.
# The organoids derived from the small intestine of Lgr5-GFP mice were treated with
# 10 μM peptides for 36 h and then collected for CytoFLEX flow cytometry to count
# Lgr5+ intestinal stem cells (a) or viable cells (b). Data from 3 independent
# (1 picture or pasted object on this page, not shown here)
# [1] = 50 μM peptides, 24 h, immunoblot
# [2] = Lgr5-GFP organoids, 36 h, flow cytometry
smiles,measurement,setting,value
CC[C@H](C)[C@@H]1NC(=O)[C@@](C)(NC(=O)[C@H](CCCNC(=N)N)NC(=O)[C@@H]2CCCN2C(=O)[C@H](Cc2c[nH]c3ccccc23)NC(=O)[C@H](CCCNC(=N)N)NC(=O)[C@H](CCCNC(=N)N)NC(C)=O)CCCC=CCCC[C@@](C)(C(=O)N[C@@H](Cc2c[nH]cn2)C(=O)N[C@H](C(=O)N[C@@H](CCCNC(=N)N)C(=O)N[C@@H](CCCNC(=N)N)C(=O)N[C@H](C(=O)N[C@@H](Cc2c[nH]c3ccccc23)C(=O)N[C@@H](CCCNC(=N)N)C(=O)NCCCCCC(=O)N[C@@H](C)C(=O)N[C@@H](CC(C)C)C(=O)N[C@@H](C)C(=O)N2CCC[C@H]2C(=O)N[C@@H](Cc2ccc(O)cc2)C(=O)N[C@H](C(=O)N2CCC[C@H]2C(N)=O)[C@@H](C)CC)C(C)C)C(C)C)NC(=O)[C@H](CC(=O)O)NC(=O)[C@H](CC(C)C)NC1=O [xStAx-VHLL] (Ac-RRWPR[S5]ILD[S5]HVRRVWR[Ahx]ALAPYIP-NH2; staple 6-10; N-terminus and C-terminus assumed),"APC^−/− organoid survival, MSAB versus xStAx-VHLL","APC^−/− organoids; 10 μM MSAB or 50 μM xStAx-VHLL, 4 days",strong inhibition
same,growth of APC^−/− organoids,"APC^−/− organoids; 50 μM peptide, 4 days",significantly impeded the growth
same,cleaved caspase 3,APC^−/− organoids; [1],increased
same,β-catenin protein level,APC^−/− organoids; [1],greatly decreased
same,"expression of Wnt target genes Axin2, Cyclin D1 and Myc",APC^−/− organoids; qPCR,downregulated
same,"β-catenin protein level, MSAB versus xStAx-VHLL","β-catenin; 10 μM MSAB, 50 μM xStAx-VHLL (legend: 70 μM, Wnt3a CM), 24 h",decreased β-catenin protein to a comparable level
same,β-catenin ubiquitination,"β-catenin; 50 μM peptide 24 h, MG132 10 μM 12 h, IP and immunoblot",promoted β-catenin ubiquitination
same,time post treatment at which β-catenin degradation started,"β-catenin; 70 μM peptide and Wnt3a CM, immunoblot time course",12 h
same,endogenous β-catenin protein level,"β-catenin; 70 μM peptide, 24 h, without Wnt3a, immunoblot",reduced the β-catenin level
same,β-catenin protein level in Wnt3a-treated cells,"β-catenin; 70 μM peptide, Wnt3a CM, 24 h, immunoblot, lower than xStAx",significantly downregulated β-catenin protein level
same,β-catenin level after wash-out of the drug,"β-catenin; MSAB 10 μM or xStAx-VHLL 70 μM 24 h, then fresh medium 24 or 48 h",durable degradation of β-catenin
same,inhibition of Wnt-induced Topflash-luciferase compared with small-molecule inhibitors,"Wnt/β-catenin signaling; 70 μM xStAx-VHLL vs 10 μM XAV939, 20 μM PRI-724, 100 μM PNU-74654, 10 μM MSAB",comparable inhibition
same,dose dependence of effect on Wnt signaling (Topflash),Wnt/β-catenin signaling; indicated concentrations,dose-dependent effect on Wnt signaling
same,Wnt3a-induced expression of the Topflash-luciferase reporter,Wnt/β-catenin signaling; peptides 70 μM each,more potent in decreasing the Wnt3a-induced expression of the reporter
same,proliferation of HCT116 cells,HCT116 cells,significantly attenuated the proliferation
same,Axin2 expression (β-galactosidase staining),Axin2 expression,significantly blocked Axin2 expression
same,"Wnt signaling target genes Lgr5, Axin2, Cyclin D1 and Myc","wild-type organoids; 3 h, qPCR",remarkably decreased
same,cleaved caspase 3 level,"wild-type organoids; 24 h, immunoblot",increased the cleaved caspase 3 level
same,β-catenin protein level,"wild-type organoids; 24 h, immunoblot",reduced the β-catenin protein level
same,organoid survival and bud formation,wild-type organoids; 4 days,obviously impeded organoid survival and bud formation
same,Lgr5+ intestinal stem cells,wild-type organoids; [2],reduced
same,viable cell population,wild-type organoids; [2],also decreased

# — PMC7280531, “A PROTAC peptide induces durable β-catenin degradation and suppresses Wnt-dependent intestinal cancer” (Cell Discovery, 2020)
